Assay results from paper PMC10860144, “Exploring the Dispersion and Electrostatic Components in Arene–Arene Interactions between Ligands and G4 DNA to Develop G4-Ligands” (Journal of Medicinal Chemistry, 2024).
pIC50, pKd: −log10 of the molar value. Converted amounts (≈) assume the structure as drawn.

How the values were obtained:
[1] = test system: G4 structure on DNA template (PEPu24T); experiment: Taq polymerase stop (primer extension) assay, G4 template; assay type: biochemical
Excerpt: To challenge all the synthesized compounds (2–11 and 25–29) in a more intricate context, we conducted a Taq polymerase stop assay to evaluate their capacity to impede DNA synthesis through G4 stabilization. In this assay, we compared the progress of the Taq DNA polymerase along two distinct DNA templates: one with a G4 structure (Figure 5) and another serving as a non-G4 control (Figure S21). If an external species (e.g., G4 ligand) binds and stabilizes the G4 structure, the polymerase will be partially halted. The extent of this DNA polymerase stalling is dependent on the ability of the compound to stabilize the G4 on the DNA template. The increased G4 stabilization can be detected as a reduction in the amount of newly synthesized DNA that has reached the end of the DNA template (full-length/end-product). Analysis of these shorter terminated DNA products will give information about the precise location of the DNA polymerase stalling with a single nucleotide resolution. If the ligand imposes little to no stabilization or binding, the G4 is readily resolved by the DNA polymerase, and no difference in the amount of DNA end-product can therefore be expected upon the addition of the compound.
Templates for the primer extension assay were created by annealing 25 nt TET labeled primer (1 μM final concentration) to either PEPu24T or a mutated sequence not forming a G4, PEPu24T mut, (1.25 μM final concentration) in 100 mM KCl by heating to 95 °C for 5 min and slowly cooling to room temperature. […] Compounds were added in the indicated concentration and incubated on ice for 10 min before starting the reaction by adding dNTPs (100 μM final concentration) to the reaction and transferring it to 37 °C. Reactions were stopped after 15 min by addition of 10 μL of formamide loading buffer (0.5% SDS, 25 mM EDTA, 95% v/v formamide and xylene-cyanol). Samples were then loaded on a 12% polyacrylamide gel containing 7 M urea and 25% formamide and imaged using an Amersham Typhoon. The images were quantified using ImageJ 1.53e software, and the percentage of full-length product compared to a sample without compound was calculated.
Templates for the primer extension assay were created by annealing 25nt TET labelled primer (1 µM final concentration) to either PEPu24T or a mutated sequence not forming a G4, PEPu24T mut, (1.25 µM final concentration) in 100 mM KCl by heating to 95 °C for 5 min and slowly cooling to room temperature. The reaction mixture (10 µl) contained 1X Taq Buffer with KCl (10 mM Tris-HCl pH 8.8, 50 mM KCl, detergent), 25 mM MgCl2, […]
[…] Compounds were added in the indicated concentration and incubated on ice for 10 min before starting the reaction by adding dNTPs (100 µM final concentration) to the reaction and transferring it to 37 °C. Reactions were stopped after 15 min by addition of 10 µl of formamide loading buffer (0,5% SDS, 25 mM EDTA, 95% v/v formamide and xylene-cyanol). Samples were then loaded on a 12% polyacrylamide gel containing 7 M urea and 25% formamide and imaged using an Amersham™ Typhoon™.
The images were quantified using ImageJ 1.53e software and the percentage of full-length product compared to a sample without compound was calculated. […]

Solubility at pH 7.4 = assay type: physicochemical
Protocol: (§1) Physicochemical properties
(§2) The Physicochemical profiling (LogD, Solubility, Caco-2 cell permeability) was performed as previously
(§3) described.8 Cell viability was performed as described below.
(§4) Table S2. Pharmacokinetic Properties
(§5) Compound Structure logD, Solubility, Rat hepsa Human mics b

[2] = Intrinsic clearance in human microsomes; assay type: in vitro ADME; details: read-out: Human mics: intrinsic clearance in human microsomes
Protocol: All compounds (2–11, 25–29) were screened for their logD and solubility at pH 7.4 and for their intrinsic clearance in rat hepatocytes and human microsomes (Table S2). […] Replacing the basic amine side chain to a methyl substituent in the quinazolines (25–29) still retained good solubility (134 to over 1000 μM) but increased clearance in both rat hepatocytes and human microsomes. The logD was low for compounds with a basic amine side chain (2–11) and increased slightly when the amine was replaced with a methyl (25–29). As expected, additional substituents also affected the logD with the chloro-substituents increasing logD the most.
a Intrinsic clearance in rat hepatocytes ((μL/min)/10^6 cells).b Intrinsic clearance in human microsomes (μL/min/mg). […]

logD at pH 7.4 = assay type: physicochemical
Protocol: as §1, §2, §3, §4, §5

c-MYC Pu22 G4 DNA = experiment: Microscale thermophoresis (MST), c-MYC Pu22 G4 DNA; assay type: binding, human; details: Cy5-labeled c-MYC Pu22 G4 DNA 25 nM; pH 7.4, 100 mM KCl; read-out: apparent Kd (MST)
Protocol: To evaluate the apparent binding affinities (Kd) for the compound series, we next used microscale thermophoresis (MST) with fluorescently labeled c-MYC Pu22 G4 DNA (Table S1). Overall, the measured MST binding results for compounds 2–11 corresponded well with the results from the FRET assay (Figures 2B and S3).
5′-Cy5 labeled G4 DNAs for this study were purchased from Eurofins Genomics. Stock solutions were prepared in water at 100 μM concentration. The sequences used are listed in Supporting Information Table S1. The G4 DNA sequences were folded in KCl buffer (10 mM phosphate, 100 mM KCl, pH 7.4) by heating at 95 °C for 5 min and then cooling to room temperature. All the experiments were performed in 10 mM phosphate pH 7.4, 100 mM KCl, and 0.05% Tween20. The labeled DNA concentration is held constant at 25 nM, and ligand concentration is varied depending on ligands Kd (16 1:3 dilutions). The samples were loaded into standard MST graded glass capillaries and initial fluorescence intensity of the capillary was measured using Monolith NT.115 (Nano Temper, Germany) with 20% LED power. The change in fluorescence with ligand’s concentrations were plotted in Excel and fitted through nonlinear equation to obtain the binding constants. […]
Microscale Thermophoresis (MST)
5'- Cy5 labelled G4 DNAs for this study were purchased from Eurofins Genomics. Stock solutions were prepared in water at […] concentration. The sequences used are listed in supplementary Table S1. The G4 DNA sequences were folded in KCl buffer (10 mM phosphate, 100 mM KCl, pH 7.4) by heating at 95 °C for 5 min and then cooling to room temperature. All the experiments were performed in 10 mM phosphate pH 7.4, 100 mM KCl, 0.05% Tween20. The labelled DNA concentration is held constant at 25 nM and ligand concentration is varied depending on ligands Kd (sixteen 1:3 dilutions). The samples were loaded into standard MST graded glass capillaries and initial fluorescence intensity of the capillary were measured using Monolith NT.115 (Nano Temper, Germany) with 20% LED power. The change in fluorescence with ligand's concentrations were plotted in Excel and fitted through non-linear equation to obtain the binding constants.
(1 picture or pasted object on this page, not shown here)

Row | SMILES | blocking of the Taq DNA polymerase at the G4 structure (in words) ([1]; compound 0.24 μM) | solubility (Solubility at pH 7.4) [µM] | microsomal CLint [2] [µL/min/mg] | logD (logD at pH 7.4) | pKd (c-MYC Pu22 G4 DNA) | pIC50 ([1]; G4 template, DNA 0.048 μM, read-out: concentration reaching 50% inhibition of DNA end-product) | full-length DNA product ([1]; compound 0.24 μM, compared to DMSO control)
1 | Cc1cc(C)c2nc(Nc3nc(C)cc(NCCCN(C)C)n3)nc(C)c2c1 [Compound 5, N4-(3-(Dimethylamino)propyl)-6-methyl-N2-(4,6,8-trimethylquinazolin-2-yl)pyrimidine-2,4-diamine] | almost completely blocked | 962 (≈ 365 µg/mL) | < 3 | 0.6 | 7.30 |  | 
2 | Cc1cc(C)c2nc(Nc3nc(C)cc(C)n3)nc(C)c2c1 [Compound 27, N-(4,6-Dimethylpyrimidin-2-yl)-4,6,8-trimethylquinazolin-2-amine] |  | 264 (≈ 77.5 µg/mL) | 140 | 2.9 | 6.10 | 5.92 | 
3 | Cc1cc(NCCCN(C)C)nc(Nc2ncc3ccccc3n2)n1 [Compound 2, N4-(3-(Dimethylamino)propyl)-6-methyl-N2-(quinazolin-2-yl)pyrimidine-2,4-diamine] |  | > 1000 | < 3 | -0.1 | 5.85 |  | about 65%
